Experimental data as given in patent US12097215B2, “Antibacterial composition and its use in treating bacterial infections” (Vector Vitale IP LLC, priority 2017, dated 2024).
Marks after values point to notes of the source that are not given here.

Assays:
E. coli ATCC 25922 [1] = assay: MBC by plating tube contents on Mueller-Hinton medium; assay type: cell-based
Description: (§1) To evaluate the bactericidal action of the antibacterial composition based on light isotope ^64Zne the minimum bactericidal concentration (MBC) was determined by plating out 0.1 ml of the contents of each tube containing the antibacterial composition on Mueller-Hinton medium. The incubation was at 37° C. for 24 h.
(§2) The MBC of the test samples was determined as the lowest concentration at which there was no growth on Mueller-Hinton agar medium.

S. aureus ATCC 25923 [2] = assay: as above; assay type: cell-based
Description: as §1, §2

P. aeruginosa ATCC 27853 [3] = assay: as above; assay type: cell-based
Description: as §1, §2

E. coli ATCC 25922 [4] = assay: MIC by serial dilutions in broth (visible growth); assay type: cell-based;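 also: broth tubes inoculated to about 5×10^5 CFU/ml, incubated at 35 °C for 16-24 h, growth judged by transmitted light versus an untreated inoculum reference tube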
Description: (§3) The minimum inhibitory concentration (MIC) and minimum bactericidal concentration (MBC) of the antibacterial composition enriched for the light isotope zinc ^64Zne was evaluated in the experiment. […] S. aureus ATCC 25923, E. coli ATCC 25922 and P. aeruginosa ATCC 27853 were used as test cultures.
(§4) The studies were carried out using the method of serial dilutions in broth. To determine sensitivity of microorganisms to the antibacterial composition, 0.5 ml of broth was placed into each tube. The number of tubes was determined based on the desired number of dilutions and was increased by one for the “negative” control (no test composition). Series of two-fold serial dilutions of the test variants of the antibacterial composition were used and concentrations ranging from 450 mcg ^64Zne/ml to 0.000107 mcg ^64Zne/ml were obtained.
(§5) Reference test strains of S. aureus ATCC 25923, E. coli ATCC 25922 and P. aeruginosa ATCC 27853 were incubated in Mueller-Hinton liquid broth at 37° C. for 24 hours. Standard bacterial suspension equivalent to 0.5 McFarland standard diluted 100-fold with the broth was used for the inoculation of the tubes after which the concentration of microorganism in it was approximately 10^6 CFU/ml.
(§6) 0.5 ml of inoculum was added to each tube containing 0.5 ml of the appropriate dilution of a solution of the ^64Zn-enriched salt of interest. […] The final concentration of the microorganism in each tube was approximately 5×10^5 CFU/ml.
(§7) The tubes were incubated at 35° C. in air for 16-20 or 20-24 hours (depending on the bacterial strain).
(§8) To determine the presence of microorganism growth the test tubes with inoculum were viewed under transmitted light. Transmitted light was measured by spectrophotometry. The growth of culture in the presence of antibacterial compositions based on ^64Zne was compared with the reference test tube (“negative” control), containing the original inoculum and stored in the refrigerator. The MIC was determined as the lowest concentration of ^64Zne that inhibits visible growth of the microorganism. Both gram-positive (S. aureus) and gram-negative bacteria (P. aeruginosa, E. coli) were used in the experiments described below.
(§9) That is, ^64Zne in the form of a salt was compared with a composition that contains zinc with a natural distribution of isotopes. […] Relevant samples containing salt of natural zinc with EDDA and natural zinc sulfate were used for the comparison.
(§10) The following commercial antibacterial medications were used for the study: azithromycin and ceftriaxone and norfloxacin. The initial concentration of 3000 mcg/ml was used for the samples of all the above compounds. […] Serial dilutions of the above antibacterial compounds were also prepared in the same way as for the antibacterial composition of the invention. The same pathogenic strains of S. aureus ATCC 25923, E. coli ATCC 25922, P. aeruginosa ATCC 27853 were used for the study.

P. aeruginosa ATCC 27853 [5] = assay: MIC by serial dilutions in broth (visible growth)
Description: as §3, §4, §5, §6, §7, §8, §9, §10

S. aureus ATCC 25923 [6] = assay: MIC by serial dilutions in broth (visible growth); assay type: cell-based;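 also: broth tubes inoculated at about 5×10^5 CFU/ml, incubated 16-24 h at 35 °C in air, growth judged by transmitted light against an unexposed refrigerated inoculum tube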
Description: as §3, §4, §5, §6, §7, §8, §9, §10

[7] = Table 8, ^64Zne vs natural zinc
[8] = Table 7, ^64Zne vs natural zinc
[9] = concentration of ^64Zne, Tables 1-5

SMILES: NC(CC(=O)[O-])C(=O)[O-].[64Zn+2] (racemic) [^64Zne aspartate]
- MBC (E. coli ATCC 25922 [1]; Table 6): 0.73* mcg ^64Zne/ml
- MBC (S. aureus ATCC 25923 [2]; Table 6): 0.023* mcg ^64Zne/ml
- MBC (P. aeruginosa ATCC 27853 [3]; Table 6): >750 mcg ^64Zne/ml

SMILES: O=S(=O)([O-])[O-].[Zn+2] [Natural zinc - sulfate, natural zinc sulfate, reference compound]
- MBC (E. coli ATCC 25922 [1]; [7]): >750 mcg zinc/ml
- MBC (S. aureus ATCC 25923 [2]; [7]): >750 mcg zinc/ml
- MBC (P. aeruginosa ATCC 27853 [3]; [7]): >750 mcg zinc/ml
- MIC (E. coli ATCC 25922 [4]; [8]): 187.5 zinc/ml
- MIC (P. aeruginosa ATCC 27853 [5]; [8]): 750 zinc/ml
- MIC (S. aureus ATCC 25923 [6]; [8]): 93.75 zinc/ml

SMILES: O=C([O-])CC(NCCNC(CC(=O)O)C(=O)O)C(=O)[O-].[64Zn+2] (stereo not drawn) [^64Zne EDDS, ^64Zne salt of ethylenediamine-N,N′-disuccinic acid, chemical name 2-[2-[[(1)-1-carboxy-2-carboxylatoethyl]amino]ethylamino]butanedioate]
- MBC (E. coli ATCC 25922 [1]; Table 6): 2.93* mcg ^64Zne/ml
- MBC (E. coli ATCC 25922 [1]; [7]): 2.9296 mcg zinc/ml
- MBC (S. aureus ATCC 25923 [2]; Table 6): 0.73* mcg ^64Zne/ml
- MBC (S. aureus ATCC 25923 [2]; [7]): 0.7324 mcg zinc/ml
- bactericidal activity (in words) (P. aeruginosa ATCC 27853 [3]): satisfactory bactericidal activity
- MBC (P. aeruginosa ATCC 27853 [3]; Table 6): 375 mcg ^64Zne/ml
- MBC (P. aeruginosa ATCC 27853 [3]; [7]): 375 mcg zinc/ml
- MIC (E. coli ATCC 25922 [4]; [8]): 0.18 zinc/ml
- visible growth (E. coli ATCC 25922 [4]; ^64Zne 0.00036 mcg/ml): +
- visible growth (E. coli ATCC 25922 [4]; ^64Zne 0.00072 mcg/ml): +
- visible growth (E. coli ATCC 25922 [4]; ^64Zne 0.0014 mcg/ml): +
- visible growth (E. coli ATCC 25922 [4]; ^64Zne 0.0029 mcg/ml): +
- visible growth (E. coli ATCC 25922 [4]; ^64Zne 0.0057 mcg/ml): +
- visible growth (E. coli ATCC 25922 [4]; ^64Zne 0.011 mcg/ml): +
- visible growth (E. coli ATCC 25922 [4]; ^64Zne 0.023 mcg/ml): −
- visible growth (E. coli ATCC 25922 [4]; ^64Zne 0.046 mcg/ml): −
- visible growth (E. coli ATCC 25922 [4]; ^64Zne 0.092 mcg/ml): −
- visible growth (E. coli ATCC 25922 [4]; ^64Zne 0.18 mcg/ml): −
- visible growth (E. coli ATCC 25922 [4]; ^64Zne 0.37 mcg/ml): −
- visible growth (E. coli ATCC 25922 [4]; ^64Zne 0.73 mcg/ml): −
- visible growth (E. coli ATCC 25922 [4]; ^64Zne 1.46 mcg/ml): −
- visible growth (E. coli ATCC 25922 [4]; ^64Zne 2.93 mcg/ml): −
- visible growth (E. coli ATCC 25922 [4]; ^64Zne 5.86 mcg/ml): −
- visible growth (E. coli ATCC 25922 [4]; ^64Zne 11.72 mcg/ml): −
- visible growth (E. coli ATCC 25922 [4]; ^64Zne 23.44 mcg/ml): −
- visible growth (E. coli ATCC 25922 [4]; ^64Zne 46.88 mcg/ml): −
- visible growth (E. coli ATCC 25922 [4]; ^64Zne 93.75 mcg/ml): −
- visible growth (E. coli ATCC 25922 [4]; ^64Zne 187.5 mcg/ml): −
- visible growth (E. coli ATCC 25922 [4]; ^64Zne 375 mcg/ml): −
- visible growth (E. coli ATCC 25922 [4]; ^64Zne 750 mcg/ml): −
- visible growth (E. coli ATCC 25922 [4]; ^64Zne 1500 mcg/ml): −
- MIC (E. coli ATCC 25922 [4]; [9]): 0.0229 µg/mL
- bacteriostatic activity (in words) (P. aeruginosa ATCC 27853 [5]): best results
- MIC (P. aeruginosa ATCC 27853 [5]; [8]): 5.86 zinc/ml
- MIC (P. aeruginosa ATCC 27853 [5]; [9]): 1.465 µg/mL
- MIC (S. aureus ATCC 25923 [6]; [8]): 0.73 zinc/ml
- visible growth (S. aureus ATCC 25923 [6]; ^64Zne 0.00036 mcg/ml): +
- visible growth (S. aureus ATCC 25923 [6]; ^64Zne 0.00072 mcg/ml): +
- visible growth (S. aureus ATCC 25923 [6]; ^64Zne 0.0014 mcg/ml): +
- visible growth (S. aureus ATCC 25923 [6]; ^64Zne 0.0029 mcg/ml): +
- visible growth (S. aureus ATCC 25923 [6]; ^64Zne 0.0057 mcg/ml): +
- visible growth (S. aureus ATCC 25923 [6]; ^64Zne 0.011 mcg/ml): +
- visible growth (S. aureus ATCC 25923 [6]; ^64Zne 0.023 mcg/ml): +
- visible growth (S. aureus ATCC 25923 [6]; ^64Zne 0.046 mcg/ml): +
- visible growth (S. aureus ATCC 25923 [6]; ^64Zne 0.37 mcg/ml): −
- visible growth (S. aureus ATCC 25923 [6]; ^64Zne 0.73 mcg/ml): −
- visible growth (S. aureus ATCC 25923 [6]; ^64Zne 1.46 mcg/ml): −
- visible growth (S. aureus ATCC 25923 [6]; ^64Zne 2.93 mcg/ml): −
- visible growth (S. aureus ATCC 25923 [6]; ^64Zne 5.86 mcg/ml): −
- visible growth (S. aureus ATCC 25923 [6]; ^64Zne 11.72 mcg/ml): −
- visible growth (S. aureus ATCC 25923 [6]; ^64Zne 23.44 mcg/ml): −
- visible growth (S. aureus ATCC 25923 [6]; ^64Zne 46.88 mcg/ml): −
- visible growth (S. aureus ATCC 25923 [6]; ^64Zne 93.75 mcg/ml): −
- visible growth (S. aureus ATCC 25923 [6]; ^64Zne 187.5 mcg/ml): −
- visible growth (S. aureus ATCC 25923 [6]; ^64Zne 375 mcg/ml): −
- visible growth (S. aureus ATCC 25923 [6]; ^64Zne 750 mcg/ml): −
- MIC (S. aureus ATCC 25923 [6]; [9]): 0.366 µg/mL
